# Test results as given in PubChem BioAssay AID2745 (NMMLSC, 2010).
# Values joined by “and” are separate entries in the source; they are usually repeats but may differ in a detail not shown here. Equal entries are not always repeated. Active and inactive are the calls of the source. The rule behind the calls is not given here.
# Experiment: LAP4-GFP modulation potency in yeast, dose response, cell-based, MLPCN hits, flow cytometry (AID 2745);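 note: yeast exposed to compound for three hours at 30 degrees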
# Conditions: S. cerevisiae LAP4-GFP reporter, flow cytometry fluorescence; at 33 µM (top of the series)
row,Compound,LAP4-GFP fluorescence (kMESF)
1,O=C(/C=C/c1ccccc1[N+](=O)[O-])c1ccccc1Br,15.6 kMESF (inactive)
2,COc1ccc(C2(C)ON(c3ccccc3C(F)(F)F)C2=O)cc1 (configuration not stated),6.61 kMESF (inactive)
3,O=C(O)c1ccccc1SC1CC(=O)N(c2ccc3c(c2)OCO3)C1=O (configuration not stated),5.3 kMESF (inactive)
4,O=C1C=CC(=O)N1c1ccc(OC(F)F)cc1,4.2 kMESF (inactive)
5,COc1ccc(C2=CC3=C(Br)C(=O)C(C)(O)C(=O)C3=CO2)cc1 (configuration not stated),0.34 kMESF (inactive)
6,O=C(Sc1cccc2cccnc12)c1ccccc1Br,18.8 kMESF (inactive)
7,O=C(Nc1cccc(C(F)(F)F)c1)Oc1ccc(Cl)c2cccnc12,12.8 kMESF (inactive)
8,CC(=O)Oc1oc(-c2ccccc2)nc1C=Nc1ccc(N(C)C)cc1,7.39 kMESF (inactive)
9,Cc1ccc(N2C(=O)C(Cl)=C(Nc3c(C)n(C)n(-c4ccccc4)c3=O)C2=O)cc1,2.87 kMESF (inactive)
10,COc1ccc(NC2=C(Cl)C(=O)N(CCc3ccccc3)C2=O)c(OC)c1,3.18 kMESF (inactive)
11,O=C1C(Cl)=C(N2CCN(Cc3ccccc3)CC2)C(=O)N1c1ccccc1,4.11 kMESF (inactive)
12,CCc1nc2ccccc2c(=O)n1NC(=O)c1c(O)c2cccc3c2n(c1=O)CCC3,3.04 kMESF (inactive)
13,O=C(O)c1cccc(S(=O)(=O)Nc2ccc(S(=O)(=O)N3CCOCC3)cc2)c1,3.38 kMESF (inactive)
14,Cc1ccc(NC(=O)CCc2ccccc2)cc1S(=O)(=O)N1CCOCC1,3.23 kMESF (inactive)
15,CCN1C(=O)/C(=C\C(=O)c2cccs2)c2cc(Br)ccc21,12 kMESF (inactive)
16,C=CCOc1ccc(C(=O)/C=C2/C(=O)Nc3ccccc32)cc1,7.99 kMESF (inactive)
17,CCOC(=O)C(C(=O)OCC)C(C(=O)OCC)N1CCOCC1 (configuration not stated),6.39 kMESF (inactive)
18,CCN(CC)C(=S)SSC(=S)N(CC)CC,20.4 kMESF (inactive)
19,COc1cccc(/C=C2\C(=O)N(c3cccc(C)c3)C(=O)c3ccccc32)c1,9.02 kMESF (inactive)
20,O=C(Oc1c(Cl)cc(Cl)c2cccnc12)c1cccs1,13.8 kMESF (inactive)
21,CC[C@H](C)/C=C(C)/C=C/C1=CC2=C(Cl)C(=O)[C@@](C)(OC(C)=O)C(=O)C2=CO1,0.86 kMESF (inactive)
22,Cc1nn(C)c(C)c1N1C(=O)c2cccc3c(Br)ccc(c23)C1=O,5.85 kMESF (inactive)

row,Compound,LAP4-GFP fluorescence (kMESF)
1,O=C(NNC(=S)NC(=O)c1ccco1)c1ccc(F)cc1,5.61 kMESF (inactive)
2,CCOC(=O)CS(=O)(=O)c1nc(-c2ccccc2)cc(C(F)(F)F)n1,19.9 kMESF (inactive)
3,Cc1ccc(/C=C/C(=O)c2ccc([N+](=O)[O-])o2)cc1,9.71 kMESF (inactive)
4,COc1cc(/C=C2/C(=O)c3cccc([N+](=O)[O-])c3C2=O)c(Br)cc1O,3.64 kMESF (inactive)
5,O=C(/C=C/c1ccccc1)c1cc(Br)ccc(=O)c1O,-10.1 kMESF (inactive)
6,COC(=O)c1cc(N2C(=O)C3C(C2=O)C2(C)C=CC3(C)O2)ccc1Cl (configuration not stated),8.52 kMESF (inactive)
7,O=C(Nc1ccc(O)cc1)C1CCCN1S(=O)(=O)c1ccc(F)cc1 (configuration not stated),3.13 kMESF (inactive)
8,CC(=O)N(C(C)=O)c1ncnc2c1c(-c1ccc(Cl)cc1)nn2C(C)(C)C,3.97 kMESF (inactive)
9,N#C/C(=C\c1cc(Br)ccc1F)C(=O)NC1CC1,18.3 kMESF (inactive)
10,COc1ccccc1NC1=C(Cl)C(=O)N(c2ccccc2)C1=O,2.98 kMESF (inactive)
11,Cc1c(Br)c(=O)oc2c(Br)c(O)c(O)cc12,2.43 kMESF (inactive)
12,O=C(/C=C/c1ccccc1)NC(=S)NNC(=O)Cc1cccs1,3.64 kMESF (inactive)
13,N#Cc1cc([N+](=O)[O-])c(-n2nnc3ccccc32)c([N+](=O)[O-])c1,14.5 kMESF (inactive)
14,CCc1ccc(C(=O)/C=C/c2ccc([N+](=O)[O-])o2)cc1,10.5 kMESF (inactive)
15,COc1ccccc1C(=O)NNC(=S)NC(=O)c1ccco1,13.2 kMESF (inactive)
16,CN(O)/C=c1/ccc2c(n1)C(=O)C=CC=2,17.5 kMESF (inactive)
17,O=C(/C=C/c1ccccc1Cl)c1ccccc(=O)c1O,-5.15 kMESF (inactive)
18,CC1(C)OC(c2ccccc2)=C/C(=C/C=C2C(=O)NC(=S)NC2=O)O1,3.03 kMESF (inactive)
19,COc1ccc(N=Cc2nc(-c3ccccc3)oc2OC(=O)c2ccccc2)cc1,4.09 kMESF (inactive)
20,O=C(c1ccc([N+](=O)[O-])o1)N1CCN(c2nc3c(F)cc(F)cc3s2)CC1,-0.9 kMESF (inactive)
21,O=C(NNC(=S)NC(=O)C12CC3CC(CC(C3)C1)C2)c1ccncc1,15.7 kMESF (inactive)
22,Cc1sc(/C=C2\C(=O)ON=C2c2ccccc2)cc1Br,2.73 kMESF (inactive)

row,Compound,LAP4-GFP fluorescence (kMESF)
1,CC(C)(C)C1C/C(=C/c2ccccn2)C(=O)/C(=C/c2ccccn2)C1 (configuration not stated),4.25 kMESF (inactive)
2,Oc1c(CN2CCN(c3ccccc3)CC2)cc(Br)c2cccnc12,20.9 kMESF (inactive)
3,O=C(NC(=S)NNC(=O)c1ccc(Cl)cc1Cl)c1cccnc1,4.37 kMESF (inactive)
4,Cc1ccc(C(=O)Oc2oc(-c3ccccc3)nc2C=Nc2ccc(N(C)C)cc2)cc1,6.02 kMESF (inactive)
5,O=C(Nc1nc2ccc(F)cc2s1)c1ccccn1,8.11 kMESF (inactive)
6,NC(=O)COc1ccc(C(=O)/C=C2/C(=O)Nc3ccccc32)cc1,6.78 kMESF (inactive)
7,COc1cc(N=c2ssnc2Cl)c(OC)cc1Cl,13.4 kMESF (inactive) and 13.8 kMESF (inactive)
8,Cc1cc2ccccn2c1C(=O)c1ccc([N+](=O)[O-])o1,-3.89 kMESF (inactive)
9,Cc1ccc(-c2nc(N)c3c(-c4ccc(C)cc4)nn(C(C)(C)C)c3n2)cc1,3.37 kMESF (inactive)
10,O=c1c2cnn(-c3ccccc3)c2ncn1Cc1ccco1,2.63 kMESF (inactive)
11,CC(C)[C@@]1(c2ccccc2)ON(c2ccccc2C(F)(F)F)C1=O,3.43 kMESF (inactive)
12,Cc1ccccc1OCC(=O)NNC(=S)NC(=O)c1ccco1,6.11 kMESF (inactive)
13,CC(C)CC(=O)NC(=S)Nc1nc(-c2ccccc2)cs1,3.44 kMESF (inactive)
14,Cc1ccc(S(=O)(=O)N2CCCC2C(=O)NCc2ccncc2)cc1 (configuration not stated),4.58 kMESF (inactive)
15,CN(C)NC(=S)Nc1ccc(S(=O)(=O)N2CCCCC2)cc1,3.13 kMESF (inactive)
16,Cc1cccc(/C=C/C(=O)c2ccc([N+](=O)[O-])o2)c1,9.32 kMESF (inactive)
17,Cc1c(C)c2ccc(Oc3ccc([N+](=O)[O-])cc3C(F)(F)F)c(C)c2oc1=O,3.47 kMESF (inactive)
18,Cc1cc(=O)n2c3c(sc2n1)C(=O)N(Cc1ccccc1)C3=O,9.31 kMESF (inactive)
19,COc1cc(C=C2C(=O)c3ccccc3C2=O)cc(OC)c1,4.28 kMESF (inactive)
20,Cc1ccc2nc(/C(C#N)=C/c3ccc(O)c(O)c3)[nH]c2c1,4.39 kMESF (inactive)
21,O=S(=O)(c1ccccc1)c1ccc(C(F)(F)F)cn1,4.29 kMESF (inactive)
22,CCOC(=O)C1=C(O)c2ccccc2C(=O)/C1=C\c1ccc(C)cc1,-35.8 kMESF (inactive)

row,Compound,LAP4-GFP fluorescence (kMESF)
1,O=C(Oc1oc(-c2ccco2)nc1C=Nc1ccccc1)c1ccoc1,8.01 kMESF (inactive)
2,Cc1ccc(/C=C2\C(=O)NC(=S)N(c3ccccc3F)C2=O)s1,5.57 kMESF (inactive)
3,O=c1c(-c2ccc(Cl)cc2)[n+]([O-])c2ccccc2n1O,16.1 kMESF (inactive)
4,c1ccc(-c2csc(Nc3cccnc3)n2)nc1,3.67 kMESF (inactive)
5,Nc1ccccc1SC(C[N+](=O)[O-])c1ccccc1 (configuration not stated),11.5 kMESF (inactive)
6,O=C(/C=C/Sc1ncn[nH]1)c1ccc(Cl)cc1,15.9 kMESF (inactive)
7,C#CCOCCOCCOCCNc1nc(N2CCN(C(=O)CCCCCCCCCCNC(=O)[C@@H](CCC(=O)O)n3cc(CCCCCN)nn3)CC2)nc(N2CCN(C(=O)CCCCCCCCCCNC(=O)[C@H](CCCCN)n3cc(C[C@@H](C)CC)nn3)CC2)n1,6.47 kMESF (inactive)
8,O=c1c2cc(Br)ccc2nc(-c2ccc([N+](=O)[O-])cc2)n1O,6.81 kMESF (inactive)
9,CCN(CC)C(=O)Oc1ccnc2cc(Cl)ccc12,7.62 kMESF (inactive)
10,CC1(c2ccccc2)ON(c2ccccc2C(F)(F)F)C1=O (configuration not stated),5.97 kMESF (inactive)
11,O=C(/C=C/c1ccnc2ccccc12)c1cccs1,11.4 kMESF (inactive)
12,COc1cc(NC(=O)c2cccc(C)c2)ccc1NC(=O)c1cc2ccccc2o1,3.31 kMESF (inactive)
13,Cc1c(N2C(=O)/C(=C\c3ccccc3O)SC2=S)c(=O)n(-c2ccccc2)n1C,10.8 kMESF (inactive)
14,O=C1N(c2ccccc2C(F)(F)F)O[C@]1(c1ccccc1)C1CCCCC1,2.33 kMESF (inactive)
15,Cc1ccc(/C=C2\SC(=S)N(CC3CCCO3)C2=O)o1 (configuration not stated),4.89 kMESF (inactive)
16,Nc1nc(N)c2nc(CNc3ccc(C(=O)NC(CCC(=O)O)C(=O)O)cc3)cnc2n1 (configuration not stated),3.13 kMESF (inactive)
17,Cc1cc(=O)oc2cc(Oc3ccc([N+](=O)[O-])cc3C(F)(F)F)ccc12,3.64 kMESF (inactive)
18,Oc1ccc(CNc2ccccc2)c2cccnc12,3.88 kMESF (inactive)
19,Cc1cc(/C=C2/SC(=S)N(c3cccc(Cl)c3)C2=O)c(C)n1-c1cccnc1,10.5 kMESF (inactive)
20,O=C(Nc1cccc(-c2csc(Nc3ccccc3)n2)c1)c1ccccc1,4.18 kMESF (inactive)
21,CCCCCn1c(=O)c(C(=O)Nc2nc3ccccc3[nH]2)c(O)c2ccccc21,2.43 kMESF (inactive)
